# Results taken from patent US8765779B2, “Tricyclic derivatives and their pharmaceutical use and compositions” (Cephalon, Inc., priority 2009, dated 2014).
# Counter-ions that a name gives are not always drawn.
# Test system: not given
# Test: not given
# Settings: not given
row,SMILES,melting point
1,"Cc1cccc(S(=O)(=O)c2ccc3c(c2)OC2CNCCC32C)n1 (racemic) (as salt: HCl) [Example 6, 4a-methyl-7-[(6-methylpyridin-2-yl)sulfonyl]-1,2,3,4,4a,9a-hexahydro[1]benzofuro[2,3-c]pyridine]",255 to 258 °C
2,"CC1OCCC12NCCc1c2oc2cc(S(=O)(=O)c3cccc(F)c3)ccc12 (single isomer, unassigned) (as salt: HCl) [Example 59, 7-[(3-Fluorophenyl)sulfonyl]-2′-methyl-3,4,4′,5′-tetrahydro-2H-spiro[1-benzofuro[2,3-c]pyridine-1,3′-furan]]",262 to 265 °C
3,"CCOc1cccc(S(=O)(=O)c2ccc3c(c2)OC2CNCCC32C)c1 (racemic) (as salt: HCl) [Example 10, 7-[(3-ethoxyphenyl)sulfonyl]-4a-methyl-1,2,3,4,4a,9a-hexahydro[1]benzofuro[2,3-c]pyridine]",271 to 273 °C
4,"CC(C)Oc1cccc(S(=O)(=O)c2ccc3c4c(oc3c2)C2(CCCOC2)NCC4)c1 (racemic) (as salt: HCl) [Example 23, 7-{[3-(propan-2-yloxy)phenyl]sulfonyl}-3,4,5′,6′-tetrahydro-2H,4′H-spiro[1-benzofuro[2,3-c]pyridine-1,3′-pyran]]",148 to 155 °C (dec.)

# Target: T1, human 5-HT6 receptor (Homo sapiens, UniProt P50406)
# T1 construct: host or cells: CHO-K1 cells, stably transfected; membranes prepared in house
# T1 sequence (P50406 whole entry): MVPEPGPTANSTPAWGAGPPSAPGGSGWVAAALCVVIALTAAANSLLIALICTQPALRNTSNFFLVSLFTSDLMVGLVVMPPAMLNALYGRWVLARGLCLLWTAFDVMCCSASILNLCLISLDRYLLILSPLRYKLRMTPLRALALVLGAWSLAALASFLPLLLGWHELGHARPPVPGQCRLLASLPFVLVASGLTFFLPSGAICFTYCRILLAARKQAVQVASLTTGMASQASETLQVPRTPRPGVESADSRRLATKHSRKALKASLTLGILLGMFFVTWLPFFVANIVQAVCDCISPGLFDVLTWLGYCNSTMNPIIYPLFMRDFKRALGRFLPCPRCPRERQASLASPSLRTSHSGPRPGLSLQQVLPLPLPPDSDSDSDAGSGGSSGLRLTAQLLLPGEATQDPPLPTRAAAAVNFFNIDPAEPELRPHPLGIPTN
# Test: Human 5-HT6 Receptor Binding Assay ([3H]LSD displacement, scintillation beads)
# Settings: membranes of CHO-K1 cells with recombinant human 5-HT6, 4 nM [3H]LSD; Table 1, class symbols; read-out: h5-HT6 (Ki)
row,SMILES,Ki
1,O=S(=O)(c1cc(F)cc(F)c1)c1ccc2c3c([nH]c2c1)C1(CCCOC1)NCC3 (stereo not drawn) [Example 312],< 500 nM
2,CC(C)C1NCCc2c1oc1cc(S(=O)(=O)c3cccc(Cl)c3)ccc21 (stereo not drawn) [Example 505],< 500 nM
3,O=S(=O)(c1ccncc1)c1ccc2c(c1)OC1CNCCC21 (stereo not drawn) [Example 330],> 1000 nM
4,CC12CCNCC1Oc1ccc(OS(=O)(=O)c3ccc(Oc4ccccc4)nc3)cc12 (stereo not drawn) [Example 782],> 1000 nM
5,CC1(C)CNCc2oc3cc(S(=O)(=O)c4cncc(Cl)c4)ccc3c21 [Example 452],< 500 nM
6,O=S(=O)(c1ccc2oc3c(c2c1)CCNC3)c1c(F)c(F)cc(F)c1F [Example 274],< 500 nM
7,"O=S(=O)(c1cc(Cl)cc(Cl)c1)c1ccc2c3c(oc2c1)CNCC3 [Example 211, 7-[(3,5-dichlorophenyl)sulfonyl]-1,2,3,4-tetrahydro[1]benzofuro[2,3-c]pyridine]",< 500 nM
8,O=[N+]([O-])c1ccc(S(=O)(=O)c2ccc3oc4c(c3c2)CCNC4)cc1 [Example 253],> 1000 nM
9,CC1(C)NCCc2c1oc1cc(S(=O)(=O)c3cccnc3N3CCOCC3)ccc21 [Example 368],< 500 nM
10,[O-][S+](c1ccc2c3c(oc2c1)CNCC3)c1c(F)c(F)cc(F)c1F (stereo not drawn) [Example 224],< 500 nM
11,O=S(=O)(c1ccc2oc3c(c2c1)CCNC3)c1cccc2ccccc12 [Example 249],< 500 nM
12,"CC1OCCC12NCCc1c2oc2cc(S(=O)(=O)c3cccc(F)c3)ccc12 (single isomer, unassigned) [Example 57, 7-[(3-Fluorophenyl)sulfonyl]-2′-methyl-3,4,4′,5′-tetrahydro-2H-spiro[1-benzofuro[2,3-c]pyridine-1,3′-furan]]",< 500 nM
13,CC(=O)N1CCC2c3cc(NS(=O)(=O)c4cc(C)ccc4C)ccc3OC2C1 (stereo not drawn) [Example 815],> 1000 nM
14,CC1(C)NCCc2c1oc1cc(S(=O)(=O)c3cc[nH]c(=O)c3)ccc21 [Example 366],< 500 nM
15,CC12CCNCC1Oc1ccc(OS(=O)(=O)Cc3cccc(Cl)c3)cc12 (stereo not drawn) [Example 791],< 500 nM
16,Cc1ccncc1S(=O)(=O)c1ccc2c3c(oc2c1)C(C)(C)NCC3 [Example 379],< 500 nM
17,"CC(C)Oc1cccc(S(=O)(=O)c2ccc3c(c2)OC2CNCCC32C)c1 (single isomer, unassigned) [Example 20, 4a-methyl-7-{[3-(propan-2-yloxy)phenyl]sulfonyl}-1,2,3,4,4a,9a-hexahydro[1]benzofuro[2,3-c]pyridine]",< 500 nM
18,"O=S(=O)(c1ccc2c3c(oc2c1)[C@]1(CCOC1)NCC3)c1cc(F)ccc1F (single isomer, unassigned) [Example 111]",< 500 nM
19,CC(C)Oc1ncccc1S(=O)(=O)c1ccc2c3c(oc2c1)CNCC3 [Example 439],< 500 nM

# The remaining lines, values ahead:
row,Ki,SMILES
1,< 500 nM,"O=S(=O)(c1cccc(OC(F)(F)F)c1)c1ccc2c(c1)OC1CNCCC21 (stereo not drawn) [Example 160, 7-{[3-(trifluoromethoxy)phenyl]sulfo-nyl}-1,2,3,4,4a,9a-hexahydro[1]benzofuro[2,3-c]pyridine]"
2,> 1000 nM,O=S(=O)(CCc1ccccc1)Oc1ccc2c(c1)OC1CNCCC21 (stereo not drawn) [Example 691]
3,< 500 nM,O=S(=O)(c1cccc(C(F)(F)F)c1)c1ccc2c3c(oc2c1)C1(CCOC1)NCC3 (stereo not drawn) [Example 307]
4,< 500 nM,CC(C)C1NCCc2c1oc1cc(S(=O)(=O)c3cccc(F)c3)ccc21 (stereo not drawn) [Example 495]
5,> 1000 nM,COc1c(F)cc(F)cc1S(=O)(=O)c1ccc2c(c1)OC1CNCCC21 (stereo not drawn) [Example 458]
6,< 500 nM,O=S(=O)(c1ccc(C(F)(F)F)cc1)c1ccc2oc3c(c2c1)CCNC3 [Example 278]
7,> 1000 nM,O=S(=O)(NC1Cc2ccccc2C1)c1ccc2c(c1)C1CCNCC1O2 (stereo not drawn) [Example 857]
8,< 500 nM,O=S(=O)(c1ccc2c(c1)OC1CNCCC21)c1ccccc1Cl (stereo not drawn) [Example 113]
9,> 1000 nM,O=[N+]([O-])c1ccc(S(=O)(=O)c2ccc3c(c2)OC2CNCCC32)cc1 (stereo not drawn) [Example 124]
10,< 500 nM,Nc1cccc(S(=O)(=O)c2ccc3c4c(oc3c2)CNCC4)c1 [Example 342]
11,< 500 nM,"O=S(=O)(c1cccc(OC(F)(F)F)c1)c1ccc2oc3c(c2c1)CCNC3 [Example 270, 6-{[3-(trifluoromethoxy)phenyl]sulfo-nyl}-1,2,3,4-tetrahydro[1]benzofuro[2,3-c]pyridine]"
12,> 1000 nM,CNC(=O)c1c(F)cccc1S(=O)(=O)c1ccc2c(c1)OC1CNCCC21 (stereo not drawn) [Example 477]
13,> 1000 nM,O=S(=O)(Cc1ccccc1Cl)Oc1ccc2c(c1)C1CCNCC1O2 (stereo not drawn) [Example 754]
14,< 500 nM,CC(C)c1ccc(S(=O)(=O)c2ccc3c(c2)C2CCNCC2O3)cc1 (stereo not drawn) [Example 179]
15,< 500 nM,O=S(=O)(c1cccc(F)c1)c1ccc2c3c(oc2c1)C(C1CCOCC1)NCC3 (stereo not drawn) [Example 496]
16,500 to 1000 nM,"O=S(=O)(c1ccccc1)c1ccc2c(c1)C1CCNCC1O2 (stereo not drawn) [Example 334, 6-(phenylsulfonyl)-1,2,3,4,4a,9a-hexahydro[1]benzofuro[2,3-c]pyridine]"
17,< 500 nM,O=S(=O)(Oc1ccc2c(c1)C1CCNCC1O2)c1cc2ccccc2s1 (stereo not drawn) [Example 724]
18,> 1000 nM,CCN1CCC2c3ccc(OS(=O)(=O)c4ccc(Cl)cc4)cc3OC2C1 (stereo not drawn) [Example 812]
19,500 to 1000 nM,O=S(=O)(Oc1ccc2c(c1)C1CCNCC1O2)c1ccc(-n2cccn2)cc1 (stereo not drawn) [Example 733]
20,500 to 1000 nM,COc1ccc(S(=O)(=O)Oc2ccc3c(c2)C2CCNCC2O3)cc1 (stereo not drawn) [Example 707]
21,> 1000 nM,O=S(=O)(CCc1ccccc1)Oc1ccc2c(c1)C1CCNCC1O2 (stereo not drawn) [Example 755]
22,< 500 nM,O=S(=O)(c1ccc2c(c1)C1CCNCC1O2)c1ccc2ccccc2c1 (stereo not drawn) [Example 175]
23,< 500 nM,O=S(=O)(c1cccc(OCc2cccnc2)c1)c1ccc2c(c1)OC1CNCCC21 (stereo not drawn) [Example 559]
24,< 500 nM,Cc1c(Cl)cccc1S(=O)(=O)Oc1ccc2c(c1)OC1CNCCC21 (stereo not drawn) [Example 658]
25,< 500 nM,COc1ccc(S(=O)(=O)c2ccc3oc4c(c3c2)CCNC4)cc1F [Example 241]
